{
  "source": "paper PMC5458187",
  "about": "“Inhibitor SBFI26 suppresses the malignant progression of castration-resistant PC3-M cells by competitively binding to oncogenic FABP5” (Oncotarget, 2017)",
  "key": {"wtrFABP5": {"target": "wtrFABP5 (Homo sapiens, UniProt Q01469)", "sequence (Q01469 whole entry)": "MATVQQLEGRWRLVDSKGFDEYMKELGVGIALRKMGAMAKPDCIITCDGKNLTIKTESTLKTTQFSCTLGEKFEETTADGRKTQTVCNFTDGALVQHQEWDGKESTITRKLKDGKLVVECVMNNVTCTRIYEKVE", "experiment": "DAUDA displacement assay (ligand binding)", "details": "for relative level of fluorescence intensity after adding ligand to the DAUDA-wtrFABP5 complex: 10 μM ligand, 2 μM DAUDA, 3 μM wtrFABP5, complex without ligand 2.65 ± 0.14; for Ki: displacement of 2 μM DAUDA from 3 μM wtrFABP5, ligand 0.5–20 μM, Ki = IC50/1+(DAUDA/Kd), read-out: inhibition constant Ki (binding affinity)", "source_text": "The fatty acid-binding ability of wtrFABP5 was examined by using the DAUDA displacement assay which used fatty acids and different chemical compounds to replace the fluorescently labelled fatty acid analogue DAUDA (Cayman). […] For each experiment, the fluorescence data were normalized to the peak fluorescent intensity, and then subtracted from the data of samples without protein. The data were fitted by nonlinear regression using GraphPad Prism software to a saturation binding curve model to estimate the apparent dissociation constant (Kd) and maximal fluorescence intensity (Bmax). […] The Ki of each ligand was determined using the equation Ki = IC50/1+ (DAUDA concentration /Kd)."}, "[1]": {"test_system": "PC3-M cells inoculated into the right flank", "experiment": "Subcutaneous nude mouse tumorigenicity assay", "assay_type": "in vivo, nude mice", "description": "PC3-M cells (2 × 10^6) in 200 μL PBS were subcutaneously injected into the right flank region of the mouse (6–8 week old) to test the suppressive effect of the inhibitors on tumorigenicity. In the first round, 3 groups of mice (8 each) were used: 1) control with PBS; 2) 1mg/kg SBFI26, injected from the 1st day after cell inoculation; 3) 1mg/kg SBFI26, injected from the 7th day after cell inoculation. In the second round, 2 groups of mice (5 each) were used and at 7 days after the cell inoculation, each group was subjected to different intra-tumoural injections: 1) control with PBS; 2) PPARγ antagonist (GW9662, 1mg/kg) (Sigma). The injections were repeated every 2 days for 30 days, tumour size was measured every 3–4 days and the volume calculated by the formula of L× W×H×0.5236 [56]. Work was performed in accordance with UKCCCR guidelines under Home Office License PPL40/2963."}, "[2]": {"test_system": "p-PPARγ1 and p-PPARγ2 in PC3-M cells", "experiment": "Western blot of phosphorylated PPARγ in PC3-M cells", "assay_type": "cell-based, human", "details": "for reduction in level of p-PPARγ1 / reduction in level of p-PPARγ2: untreated set at 1"}, "[3]": {"test_system": "p-PPARγ1 and p-PPARγ2 in 22RV1 cells", "experiment": "Western blot of phosphorylated PPARγ in 22RV1 cells", "assay_type": "cell-based, human", "details": "for effect on levels of p-PPARγ1 and 2: 22RV1, 24 h"}, "PC3-M cells [4]": {"test_system": "PC3-M cells", "experiment": "Boyden chamber invasion assay", "assay_type": "cell-based, human", "details": "100 μM, 24 h", "description": "PC3-M cells in serum-free medium were seeded in the upper Boyden chamber (BD Biosciences) in triplicate at a density of 2.5 × 10^4 cells per well in serum-free medium. Complete medium was added to the lower chambers. After 3 hours of incubation, 100 μM SBFI26 was added to the upper chambers. After 24 h of incubation, cells that invaded the lower chambers were stained with crystal violet and counted with a cell counter."}, "PC3-M cells [5]": {"test_system": "PC3-M cells", "experiment": "Cell viability MTT assay", "assay_type": "cell-based, human", "details": "24 h", "description": "(§1) PC3-M cells (5 × 10^4) were plated in triplicate in 96 well plates and incubated overnight. Cells were treated with different concentrations of SBFI26 (25–125 μM) for 24 h. Cell viability was assessed using MTT assay, as described previously. The anti-proliferative effect of the best concentration for SBFI26 was determined after 6 days of treatment."}, "PPARγ": {"test_system": "PPARγ", "design": "method as in PMID 23236415", "details": "cited from earlier work"}, "[6]": {"test_system": "fatty acid uptake of PC3-M cells", "experiment": "Fatty acid uptake assay with BODIPY-labelled fatty acid", "assay_type": "cell-based, human", "details": "30 min; for cells with BODIPY-labelled fatty acid uptake (M2): control 92.9%", "description": "Assay for fatty acid uptake was performed using red fluorescence-labelled BODIPY [57]. The fluorescence intensity from cells before and 30 minutes after adding BODIPY was measured to determine fatty acid uptake. In inhibition and competition experiments, different concentrations of unlabelled lead compound SBFI26 (50–200 μM) with the same concentration of labelled BODIPY were added directly to the highly malignant PC3-M cells."}, "PC3-M cells [7]": {"test_system": "PC3-M cells", "experiment": "Wound healing migration assay", "assay_type": "cell-based, human", "details": "100 μM, 24 h; control gap closure 94%", "description": "Wound healing migration assay was carried out to evaluate the effect of SBFI26 on the migratory rate of PC3-M cells. Wounds were generated by scratching the monolayer cells with a blue pipette tip. The floating cells were removed by washing with PBS and inhibitors were added to the culture medium. The wound was photographed under the microscope at 0, 12 and 24 h after treatment and the wound widths were assessed by quantitative analysis using ImageJ software."}, "PC3-M cells [8]": {"test_system": "PC3-M cells", "experiment": "Proliferation MTT assay", "assay_type": "cell-based, human", "details": "100 μM", "description": "as §1"}, "[9]": {"test_system": "PC3-M-Luc8 cells implanted orthotopically into the prostate gland", "experiment": "Orthotopic nude mouse assay of tumorigenicity and metastasis", "assay_type": "in vivo, Balb/c nude mice", "description": "PC3-M cells were transfected with the pGL4.50 [luc2/CMV/Hygro] vector (Promega) using FuGene HD transfection reagent (Promega) following the manufacturer’s instructions. Individual colonies were isolated by ring cloning and 3 colonies that stably-expressed the highest bioluminescence signals were identified using D-luciferin (Promega) with a Varioskan Flash Reader (Thermo Scientific). Association of the luminescence intensity with the number of cells was assessed by an IVIS imaging system (Perkin Elmer). Cells (5 × 10^5) from PC3-M- luc2 colony were suspended in 30 μL PBS and orthotopically implanted into the dorsal prostate of 33 male Balb/c nude mice (Charles River, UK) (8–10 weeks old), as described previously. One week later, tumour-bearing mice were divided into 2 groups (8 each) and subjected to the following intraperitoneally injections: 1) control with PBS; 2) SBFI26, 1mg/kg. Injections were repeated every two days for 25 days and the metastatic loci were monitored weekly using the IVIS after mice were subcutaneously injected with D-luciferin (150 mg/kg). Bioluminescence images was analysed using the Living Imagine software (Xenogen) and the measurement recorded was based on total photons/second (p/s) within each defined region of interest."}, "PC3-M cells [10]": {"test_system": "PC3-M cells", "experiment": "Soft-agar colony formation assay", "assay_type": "cell-based, human", "details": "100 μM", "description": "Low melting agarose was seeded in 6-well plates and 5 × 10^4 cells/well layered on agar, followed by 200 μl of medium alone or medium with FABP5 inhibitor SBFI26. Colonies larger than 300 μm in each well were counted 2 weeks later in a similar way to that described previously."}},
  "note": "“And” between values parts separate entries of the source, which are not always exact repeats. Identical values can stand only once.",
  "data": [
    {"molecule": "CN(C)c1cccc2c(S(=O)(=O)NCCCCCCCCCCC(=O)O)cccc12", "note": "[DAUDA]", "values": [
      {"measurement": "Kd", "setting": "wtrFABP5; 3 μM wtrFABP5 titrated with DAUDA 0.4–3 μM, ex 345/em 530 nm, read-out: apparent dissociation constant (Kd) of DAUDA to wtrFABP5", "result": "1860 ± 160", "unit": "nM"},
      {"measurement": "maximal fluorescence intensity (Bmax)", "setting": "wtrFABP5; DAUDA titration to 3 μM wtrFABP5", "result": 3.579}
    ]},
    {"molecule": "O=C(Nc1ccccc1)c1cc([N+](=O)[O-])ccc1Cl", "note": "[GW9662]", "values": [
      {"measurement": "suppression of tumour size vs control", "setting": "[1]; GW9662 1 mg/kg from day 7", "result": 67, "unit": "%"},
      {"measurement": "average size of tumours", "setting": "[1]; GW9662 1 mg/kg intra-tumoural from day 7, n = 5, control 774 ± 202 mm^3", "result": "252 ± 84", "unit": "mm^3"},
      {"measurement": "reduction in level of p-PPARγ1", "setting": "[2]; 24 hours", "result": 52, "unit": "%"},
      {"measurement": "reduction in level of p-PPARγ2", "setting": "[2]; 24 hours", "result": 51, "unit": "%"}
    ]},
    {"molecule": "O=C(O)C1C(c2ccccc2)C(C(=O)Oc2cccc3ccccc23)C1c1ccccc1", "note": "(stereo not drawn) [SBFI26, α-truxillic acid 1-naphthyl mono-ester]", "values": [
      {"measurement": "average reduction in both PPARγ activated isoforms", "setting": "[3]; 22RV1", "result": 33.5, "unit": "%"},
      {"measurement": "effect on levels of p-PPARγ1 and 2", "setting": "[3]", "result": "suppressed the levels of both p-PPARγ isoforms"},
      {"measurement": "suppression of invasion", "setting": "PC3-M cells [4]; vs control", "result": 95.5, "unit": "%"},
      {"measurement": "mean number of invaded cells", "setting": "PC3-M cells [4]; control 22 ± 3", "result": "1 ± 1"},
      {"measurement": "reduction in cell numbers", "setting": "PC3-M cells [5]; 100 μM", "result": 26, "unit": "%"},
      {"measurement": "concentration producing maximum suppression of viability", "setting": "PC3-M cells [5]; MTT", "result": 100, "unit": "µM"},
      {"measurement": "activity at PPARγ", "setting": "PPARγ", "result": "weak agonist of PPARγ"},
      {"measurement": "unstained cells (M1)", "setting": "[6]; 50 μM", "result": 20.76, "unit": "%"},
      {"measurement": "cells with BODIPY-labelled fatty acid uptake (M2)", "setting": "[6]; 50 μM", "result": 79.24, "unit": "%"},
      {"measurement": "unstained cells (M1)", "setting": "[6]; 100 μM", "result": 32.31, "unit": "%"},
      {"measurement": "cells with BODIPY-labelled fatty acid uptake (M2)", "setting": "[6]; 100 μM", "result": "67.7% and 67.69%"},
      {"measurement": "unstained cells (M1)", "setting": "[6]; 150 μM", "result": 30.88, "unit": "%"},
      {"measurement": "cells with BODIPY-labelled fatty acid uptake (M2)", "setting": "[6]; 150 μM", "result": 69.12, "unit": "%"},
      {"measurement": "unstained cells (M1)", "setting": "[6]; 200 μM", "result": 30.79, "unit": "%"},
      {"measurement": "cells with BODIPY-labelled fatty acid uptake (M2)", "setting": "[6]; 200 μM", "result": 69.21, "unit": "%"},
      {"measurement": "reduction in wound size", "setting": "PC3-M cells [7]", "result": 19, "unit": "%"},
      {"measurement": "suppression of tumour volume vs control", "setting": "[1]; SBFI26 1 mg/kg for 31 days", "result": 52, "unit": "%"},
      {"measurement": "average tumour volume on termination", "setting": "[1]; SBFI26 1 mg/kg for 31 days, n = 8, control 627 ± 120 mm^3", "result": "302 ± 86", "unit": "mm^3"},
      {"measurement": "reduction of proliferation rate", "setting": "PC3-M cells [8]", "result": 17, "unit": "times"},
      {"measurement": "suppression in metastasis incidence compared to control", "setting": "[9]; 25 days, 1 mg/kg i.p.", "result": 50, "unit": "%"},
      {"measurement": "mice that produced visceral metastasis (number/total)", "setting": "[9]; 25 days, 1 mg/kg i.p., control 7/7", "result": "4/8"},
      {"measurement": "mice that produced visceral metastasis", "setting": "[9]; 25 days, 1 mg/kg i.p., control 100%", "result": 50, "unit": "%"},
      {"measurement": "metastasis sites by histological staining", "setting": "[9]; H&E, control: all mice, mainly liver and lung", "result": "half of the mice developed liver metastases with no metastasis in the lung"},
      {"measurement": "bioluminescence signal", "setting": "[9]; day 25, 1 mg/kg intraperitoneally, control 31.5 × 10^8", "result": "6.66 × 10^8 p/sec/cm^2"},
      {"measurement": "average reduction in both PPARγ activated isoforms", "setting": "[2]", "result": "about 50%"},
      {"measurement": "reduction in level of p-PPARγ1", "setting": "[2]; 24 hours", "result": 44, "unit": "%"},
      {"measurement": "reduction in level of p-PPARγ2", "setting": "[2]; 24 hours", "result": 46, "unit": "%"},
      {"measurement": "inhibition of colony formation", "setting": "PC3-M cells [10]; 2 weeks, vs control", "result": 100, "unit": "%"},
      {"measurement": "number of colonies formed in soft agar", "setting": "PC3-M cells [10]; after 2 weeks, control 124 ± 18", "result": 0}
    ]},
    {"molecule": "CCCCC/C=C\\C/C=C\\CCCCCCCC(=O)O", "note": "[linoleic acid]", "values": [
      {"measurement": "relative level of fluorescence intensity after adding ligand to the DAUDA-wtrFABP5 complex", "setting": "wtrFABP5", "result": "1.37 ± 0.07"},
      {"measurement": "Ki", "setting": "wtrFABP5", "result": 1570, "unit": "nM"}
    ]},
    {"molecule": "CCCCCCCC/C=C\\CCCCCCCC(=O)O", "note": "[oleic acid]", "values": [
      {"measurement": "relative level of fluorescence intensity after adding ligand to the DAUDA-wtrFABP5 complex", "setting": "wtrFABP5", "result": "1.68 ± 0.09"},
      {"measurement": "Ki", "setting": "wtrFABP5", "result": 1890, "unit": "nM"}
    ]},
    {"molecule": "CN(CCOc1ccc(CC2SC(=O)NC2=O)cc1)c1ccccn1", "note": "(centres unmarked) [rosiglitazone]", "values": [
      {"measurement": "effect on levels of p-PPARγ isoforms", "setting": "[2]; 24 hours", "result": "significantly increased levels of both p-PPARγ isoforms"}
    ]},
    {"molecule": "wtrFABP5: FABP5 protein (wtrFABP5) used as binding target and as treatment of 22RV1 cells", "values": [
      {"measurement": "effect on levels of p-PPARγ1 and 2", "setting": "[3]", "result": "significantly increased levels of both p-PPARγ1 and 2"}
    ]}
  ]
}
